{"source": "ChEMBL document CHEMBL1201862", "about": "“PubChem BioAssay data set” (2004)", "key": {"[1]": {"target": "Paired box protein Pax-8 (Homo sapiens, UniProt Q06710)", "sequence (Q06710 whole entry)": "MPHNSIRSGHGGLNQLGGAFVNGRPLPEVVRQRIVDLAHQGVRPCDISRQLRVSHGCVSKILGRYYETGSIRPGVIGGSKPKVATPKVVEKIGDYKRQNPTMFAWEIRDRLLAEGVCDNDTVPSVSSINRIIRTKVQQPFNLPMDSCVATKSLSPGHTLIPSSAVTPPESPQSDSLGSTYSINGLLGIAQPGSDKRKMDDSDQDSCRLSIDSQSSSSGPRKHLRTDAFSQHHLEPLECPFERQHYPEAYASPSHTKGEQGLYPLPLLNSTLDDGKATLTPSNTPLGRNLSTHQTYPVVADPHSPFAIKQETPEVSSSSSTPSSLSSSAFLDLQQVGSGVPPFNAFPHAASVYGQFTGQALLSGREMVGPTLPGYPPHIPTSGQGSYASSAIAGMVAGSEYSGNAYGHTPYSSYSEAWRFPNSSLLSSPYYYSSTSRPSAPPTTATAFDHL", "test": "inhibitors of PAX8-driven TPO luciferase reporter, dose response, RMG-I cells, cherry-pick (AID 687027);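 also: luciferase reporter driven by Pax8 target thyroperoxidase promoter measured by SteadyGlo luminescence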", "format": "functional, cell-based"}, "[2]": {"test": "reduction of Shn3 3'UTR firefly luciferase signal, dose response, Schnurri-3 inhibitor project, cell-based, Clone20 osteoblasts, cherry-pick, set 2 (AID 720490)", "format": "functional"}, "[3]": {"test": "inhibitors of PGC1a acetylation in cells, dose response, cell-based, cherry-picked samples (AID 720514);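 also: potency may reflect raised or lowered acetylation signal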", "format": "functional"}, "[4]": {"test": "control 3'UTR Renilla luciferase suppression, dose response, counter-screen for Shn3 inhibitor project, cell-based, Clone20-Shn3RL, cherry-picked (AID 624133)", "format": "functional"}, "[5]": {"test": "Shn3 3'UTR reporter inhibitors, dose response, cell-based, Clone20 osteoblasts, firefly luciferase, cherry-picked (AID 624132)", "format": "functional"}, "[6]": {"test": "non-specific cell cytotoxicity, dose response, cytotoxicity control for PAX8 inhibitor project, plate reader, dry powder samples (AID 743021)", "format": "functional, cell-based"}, "[7]": {"test": "inhibitors of control Renilla luciferase reporter, dose response, counter-screen for Shn3 3'UTR targeting project, Clone20-Shn3RL cells, dual-Glo, cherry-pick, set 2 (AID 720724)", "format": "functional, cell-based", "conditions": "Dual-Go Shn3RL"}, "[8]": {"test": "HepG2 cell cytotoxicity, dose response, cytotoxicity control for Shn3 inhibitor project, CellTiter-Glo, cherry-picked (AID 624134)", "format": "functional, cell-based"}, "[9]": {"test": "Luminescence Cell-Based Dose Response HTS to Identify Inhibitors of 5'UTR Stem-Loop Driven Prion Protein mRNA Translation in H4 Neuroglioblastoma Cells. [Related pubchem assays: 1827 (Project Summary), 1813 (Primary HTS)]", "format": "functional"}, "[10]": {"tested_on": "HEK293", "test": "inhibitors of LMP1-driven NF-kB reporter, dose response, cell-based, HEK293, luciferase, cherry-pick (AID 588343)", "format": "functional", "conditions": "Homo sapiens"}, "[11]": {"test": "C. albicans growth with fluconazole, confirmation, fluorescence, retest (AID 2467)", "format": "functional, cell-based"}, "[12]": {"tested_on": "INS1", "test": "beta cell apoptosis inhibitors, cytokine rescue, dose response, luminescence, retest (AID 449756);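 also: cell death triggered by IL-1 beta plus TNF-alpha plus IFN-gamma mixture; protective hits raise ATP signal compared with cytokine alone wells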", "format": "functional, cell-based", "conditions": "Rattus norvegicus"}, "[13]": {"test": "inhibitors of SNCA 5'UTR-driven reporter translation, confirmation, H4 neuroglioma cells, luminescence (AID 1988)", "format": "functional, cell-based"}, "[14]": {"test": "cells", "format": "functional, cell-based"}, "[15]": {"test": "Luminescence Cell-Based Dose Retest to Confirm Inhibitors of Cancer Stem Cells. [Related pubchem assays (depositor defined):AID2717, AID2721]", "format": "functional", "conditions": "Homo sapiens"}, "[16]": {"test": "Vero cell cytotoxicity, dose response, cytotoxicity control for Vif-APOBEC3G degradation inhibitor project, Vero cells (AID 1117358)", "format": "functional", "conditions": "Human immunodeficiency virus 1, Vero"}, "[17]": {"test": "inhibitors of firefly luciferase expression or activity, dose response, H4 neuroglioma cells, luminescence (AID 1990)", "format": "functional, cell-based"}, "[18]": {"test": "cells", "format": "functional, cell-based", "remark": "listed apart in the source"}, "[19]": {"test": "NIH-3T3 fibroblast cytotoxicity, dose response, cytotoxicity control, cell-based, fluorescence, Alamar Blue, secondary assay (AID 2327);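 also: NIH-3T3 mouse fibroblasts cultured with fluconazole at 8 µg/mL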", "format": "functional"}, "[20]": {"target": "Nonstructural protein 1 (Influenza A virus, UniProt Q194T2)", "sequence (Q194T2 whole entry)": "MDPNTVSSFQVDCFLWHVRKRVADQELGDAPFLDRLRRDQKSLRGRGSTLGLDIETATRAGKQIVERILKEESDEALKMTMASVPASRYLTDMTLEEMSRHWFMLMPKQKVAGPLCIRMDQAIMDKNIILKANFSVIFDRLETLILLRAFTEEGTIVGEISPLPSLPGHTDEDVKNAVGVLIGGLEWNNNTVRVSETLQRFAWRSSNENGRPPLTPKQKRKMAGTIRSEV", "format": "functional, Influenza A virus (A/California/07/2009(H1N1))"}, "[21]": {"target": "Cytochrome P450 2C19 (Homo sapiens, UniProt P33261)", "sequence (P33261 whole entry)": "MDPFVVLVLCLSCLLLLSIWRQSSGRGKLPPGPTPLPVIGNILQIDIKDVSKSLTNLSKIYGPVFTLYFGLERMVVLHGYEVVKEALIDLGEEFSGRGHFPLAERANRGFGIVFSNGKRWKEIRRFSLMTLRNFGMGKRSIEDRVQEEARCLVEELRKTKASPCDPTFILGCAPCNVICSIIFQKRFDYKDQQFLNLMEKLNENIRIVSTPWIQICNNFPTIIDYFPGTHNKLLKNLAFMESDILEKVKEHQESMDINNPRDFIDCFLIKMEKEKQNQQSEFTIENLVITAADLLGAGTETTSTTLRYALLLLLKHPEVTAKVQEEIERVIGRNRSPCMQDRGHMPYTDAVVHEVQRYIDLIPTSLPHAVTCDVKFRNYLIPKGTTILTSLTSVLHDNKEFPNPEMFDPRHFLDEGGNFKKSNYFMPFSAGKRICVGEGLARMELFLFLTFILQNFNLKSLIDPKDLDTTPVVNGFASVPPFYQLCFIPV", "test": "qHTS Assay for Inhibitors and Substrates of Cytochrome P450 2C19. [Related pubchem assays: 410 ]", "format": "ADME", "conditions": "read-out: Potency"}, "[22]": {"target": "Caspase-6 (Homo sapiens, UniProt P55212)", "sequence (P55212 24-179 limits assumed)": "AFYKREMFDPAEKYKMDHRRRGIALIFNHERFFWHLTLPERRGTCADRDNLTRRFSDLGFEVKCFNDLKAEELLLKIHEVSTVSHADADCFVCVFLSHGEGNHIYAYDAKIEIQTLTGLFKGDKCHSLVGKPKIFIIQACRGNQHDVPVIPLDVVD", "sequence (P55212 194-293 limits assumed)": "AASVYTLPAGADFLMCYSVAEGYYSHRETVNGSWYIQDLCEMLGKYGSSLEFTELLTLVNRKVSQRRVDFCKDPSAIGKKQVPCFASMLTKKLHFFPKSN", "test": "human caspase-6 inhibitors, dose response, biochemical, VEID-R110 fluorescence, cherry-pick (AID 720632)"}, "[23]": {"target": "T1, Heat shock factor protein 1 (Mus musculus, UniProt P38532)", "T1 sequence (P38532 whole entry)": "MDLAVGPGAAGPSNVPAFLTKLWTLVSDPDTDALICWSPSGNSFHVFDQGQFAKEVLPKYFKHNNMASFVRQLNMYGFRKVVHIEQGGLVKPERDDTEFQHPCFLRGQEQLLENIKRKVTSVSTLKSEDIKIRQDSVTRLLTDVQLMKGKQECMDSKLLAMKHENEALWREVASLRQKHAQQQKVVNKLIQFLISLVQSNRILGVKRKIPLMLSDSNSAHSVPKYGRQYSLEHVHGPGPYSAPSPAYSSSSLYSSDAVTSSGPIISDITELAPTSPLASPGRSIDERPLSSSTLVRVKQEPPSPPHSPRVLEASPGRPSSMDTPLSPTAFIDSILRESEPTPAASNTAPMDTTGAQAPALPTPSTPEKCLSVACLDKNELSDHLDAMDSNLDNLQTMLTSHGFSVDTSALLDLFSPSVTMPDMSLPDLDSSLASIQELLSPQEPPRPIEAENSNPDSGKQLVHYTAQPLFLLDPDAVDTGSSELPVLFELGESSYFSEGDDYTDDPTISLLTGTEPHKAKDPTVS", "test": "HSF1 potentiators in luciferase reporter cells, confirmation, cell-based, NIH3T3, luminescence, dose retest (AID 435004);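 also: stress induced by proteasome inhibitor MG132 added 30 min after compound; actives raise luminescence as potentiators of the MG132 stress response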", "format": "functional"}, "[24]": {"test": "HEp-2 cell cytotoxicity, dose response, cytotoxicity control for RSV inhibitor project, HTS (AID 2410)", "format": "functional", "conditions": "human respiratory syncytial virus"}, "[25]": {"target": "T2, Aminopeptidase N (Plasmodium falciparum FcB1/Columbia, UniProt O96935)", "T2 sequence (O96935 whole entry)": "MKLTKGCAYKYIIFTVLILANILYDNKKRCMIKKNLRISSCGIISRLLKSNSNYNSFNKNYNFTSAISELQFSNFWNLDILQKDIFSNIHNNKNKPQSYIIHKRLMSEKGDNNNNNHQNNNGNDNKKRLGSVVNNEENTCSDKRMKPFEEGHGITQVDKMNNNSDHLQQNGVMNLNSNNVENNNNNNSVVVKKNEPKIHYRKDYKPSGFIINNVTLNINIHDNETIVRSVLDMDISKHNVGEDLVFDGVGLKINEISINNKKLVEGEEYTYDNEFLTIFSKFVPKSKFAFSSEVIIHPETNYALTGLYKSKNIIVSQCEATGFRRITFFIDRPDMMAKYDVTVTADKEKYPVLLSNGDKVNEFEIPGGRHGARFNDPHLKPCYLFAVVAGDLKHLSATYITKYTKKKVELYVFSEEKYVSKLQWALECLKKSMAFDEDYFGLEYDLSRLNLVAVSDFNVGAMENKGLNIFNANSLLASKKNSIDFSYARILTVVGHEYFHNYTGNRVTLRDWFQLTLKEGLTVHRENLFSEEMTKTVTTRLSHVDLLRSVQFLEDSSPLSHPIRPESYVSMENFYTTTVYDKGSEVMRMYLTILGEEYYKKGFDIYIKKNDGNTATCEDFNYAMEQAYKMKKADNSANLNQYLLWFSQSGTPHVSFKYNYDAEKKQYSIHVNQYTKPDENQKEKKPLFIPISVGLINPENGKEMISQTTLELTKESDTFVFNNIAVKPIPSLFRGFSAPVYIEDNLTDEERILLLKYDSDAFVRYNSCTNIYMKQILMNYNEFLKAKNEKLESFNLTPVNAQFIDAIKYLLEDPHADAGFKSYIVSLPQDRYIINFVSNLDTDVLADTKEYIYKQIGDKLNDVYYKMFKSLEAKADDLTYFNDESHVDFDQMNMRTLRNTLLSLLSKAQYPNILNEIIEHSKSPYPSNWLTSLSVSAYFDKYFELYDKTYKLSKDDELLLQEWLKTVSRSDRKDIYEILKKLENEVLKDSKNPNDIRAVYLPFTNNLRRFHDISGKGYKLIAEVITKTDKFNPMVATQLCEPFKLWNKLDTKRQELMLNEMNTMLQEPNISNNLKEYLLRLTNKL", "test": "P. falciparum M1AAP inhibitors, biochemical, fluorogenic H-Leu-NHMec substrate, 1536-well (AID 1445)", "set-up": "species or system Plasmodium falciparum 3D7, 3D7"}}, "note": "The source made the active and inactive calls.", "data": [{"compound": "Oc1nc2ccccc2n1C1CCN(C(CCc2ccccc2)c2nnnn2Cc2ccccc2)CC1", "note": "(stereo unspecified)", "values": [{"measurement": "AC50", "setting": "[1]", "value": "1.4 µM (active)"}, {"measurement": "AC50", "setting": "[2]", "value": "3.97 µM (active)"}, {"measurement": "AC50", "setting": "[3]", "value": "3.88 µM (active)"}, {"measurement": "AC50", "setting": "[4]", "value": "60.9 µM (active)"}, {"measurement": "AC50", "setting": "[5]", "value": "1.23 µM (active)"}, {"measurement": "AC50", "setting": "[6]", "value": "11.4 µM (active)"}, {"measurement": "AC50", "setting": "[7]", "value": "20.3 µM (active)"}, {"measurement": "AC50", "setting": "[8]", "value": "13.5 µM (active)"}]}, {"compound": "Oc1ccccc1/C=N/Nc1nccnc1Cl", "values": [{"measurement": "EC50", "setting": "[9]", "value": "9.43 µM (active)"}, {"measurement": "AC50", "setting": "[10]", "value": "14.9 µM (active)"}, {"measurement": "EC50", "setting": "[11]", "value": "1.06 µM (active)"}, {"measurement": "AC50", "setting": "[12]", "value": "747 nM (active)"}, {"measurement": "EC50", "setting": "[13]", "value": "4.65 µM (active)"}, {"measurement": "EC50", "setting": "[14]", "value": "9.82 µM (active)"}, {"measurement": "AC50", "setting": "[15]", "value": "6.46 µM (active)"}, {"measurement": "CC50", "setting": "[16]", "value": "8.61 µM (active)"}, {"measurement": "EC50", "setting": "[17]", "value": "9.08 µM (active)"}, {"measurement": "EC50", "setting": "[18]", "value": "7.95 µM (active)"}, {"measurement": "EC50", "setting": "[19]", "value": "38.5 µM (active)"}, {"measurement": "IC50", "setting": "[20]", "value": "15.9 µM (active)"}]}, {"compound": "O=c1cc(-c2ccc(O)c(O)c2)oc2cccc(O)c12", "values": [{"measurement": "AC50", "setting": "[21]", "value": "15.8 µM (inconclusive)"}]}, {"compound": "O=C(Cc1cccs1)N1Cc2ccccc2-n2nncc2C1", "values": [{"measurement": "AC50", "setting": "[22]", "value": "5.36 µM (active)"}]}, {"compound": "CCOC(=O)COc1ccc(Br)cc1/C=C/c1nc(O)nc(O)c1[N+](=O)[O-]", "values": [{"measurement": "EC50", "setting": "[23]", "value": "15.6 µM (active)"}, {"measurement": "AC50", "setting": "[22]", "value": "5.09 µM (active)"}, {"measurement": "CC50", "setting": "[24]", "value": "12.7 µM (active)"}, {"measurement": "IC50", "setting": "[25]", "value": "25.4 µM (active)"}]}]}
